{"source": "ChEMBL document CHEMBL4602645", "about": "“Design, synthesis and evaluation of diosgenin carbamate derivatives as multitarget anti-Alzheimer's disease agents” (2020)", "key": {"SH-SY5Y [1]": {"tested_on": "SH-SY5Y", "test": "Effect on mitochondrial membrane potential in human SH-SY5Y cells assessed as […] in H2O2-incuded mitochondrial membrane potential loss by measuring fluorescence shift at 5 to 50 uM pretreated for 2 hrs followed by H2O2 challenge measured after 12 hrs by fluorescence microscopy analysis", "format": "functional, cell-based"}, "RAW264.7 [2]": {"tested_on": "RAW264.7", "test": "Antiinflammatory activity in mouse RAW264.7 cells assessed as decrease in LPS-induced TNFalpha expression by Western blot analysis", "format": "functional, cell-based"}, "SH-SY5Y [3]": {"tested_on": "SH-SY5Y", "test": "Neuroprotective activity in human SH-SY5Y cells assessed as inhibition of H2O2-induced decreased nerve filaments at 1 to 50 uM pretreated for 2 hrs followed by H2O2 challenge and measured after 12 hrs by fluorescence microscopy analysis", "format": "functional, cell-based"}, "Mus musculus [4]": {"tested_on": "Mus musculus", "test": "Neuroprotective activity in ICR mouse model of D-galactose-induced aging assessed as increase in number of […] cells at 6 to 30 mg/kg, ig QD measured after 8 weeks by hematoxylin-eosin staining based assay", "format": "functional, organism-based"}, "SH-SY5Y [5]": {"tested_on": "SH-SY5Y", "test": "Neuroprotective activity in human SH-SY5Y cells assessed as inhibition of H2O2-induced shortened nerve filaments at 1 to 50 uM pretreated for 2 hrs followed by H2O2 challenge and measured after 12 hrs by fluorescence microscopy analysis", "format": "functional, cell-based"}, "Mus musculus [6]": {"tested_on": "Mus musculus", "test": "Neuroprotective activity in ICR mouse model of D-galactose-induced aging assessed as reduction in degeneration of neuron in hippocampal region at 6 to 30 mg/kg, ig QD measured after 8 weeks by hematoxylin-eosin staining based assay", "format": "functional, organism-based"}, "SH-SY5Y [7]": {"tested_on": "SH-SY5Y", "test": "Neuroprotective activity against H2O2-induced toxicity in human SH-SY5Y cells assessed as decrease in cell viability at 0.1 to 100 uM pretreated for 2 hrs followed by H2O2 challenge and measured after 12 hrs by MTT assay", "format": "functional, cell-based"}, "RAW264.7 [8]": {"tested_on": "RAW264.7", "test": "Antiinflammatory activity in mouse RAW264.7 cells assessed as decrease in LPS-induced IL-6 expression by Western blot analysis", "format": "functional, cell-based"}, "Mus musculus [9]": {"tested_on": "Mus musculus", "test": "Improvement in learning and spatial memory in ICR mouse model of D-galactose-induced aging assessed as effect on time spent on quadrant at 6 to 30 mg/kg, ig QD measured after 8 weeks by Morris water maze test", "format": "functional, organism-based"}, "SH-SY5Y [10]": {"tested_on": "SH-SY5Y", "test": "Neuroprotective activity against H2O2-induced cytotoxicity in human SH-SY5Y cells assessed as cell viability at 10 uM pretreated for 2 hrs followed by H2O2 challenge and measured after 24 hrs by MTT assay relative to control", "format": "functional", "details": "read-out: Activity"}, "Astrocyte": {"tested_on": "Astrocyte", "test": "Neuroprotective activity against amyloid-beta42-induced cell death in astrocytes isolated from cortex of Sprague-Dawley rat assessed as decrease in cell viability at 5 to 100 uM pretreated for 2 hrs followed by amyloid-beta42 stimulation measured after 24 hrs by MTT assay", "format": "functional, cell-based"}, "SH-SY5Y [11]": {"tested_on": "SH-SY5Y", "test": "Effect on mitochondrial ROS generation in human SH-SY5Y cells assessed as decrease in H2O2-induced mitochondrial ROS level by measuring fluorescence intensity at 5 to 50 uM incubated for 2 hrs by DCFDA probe based fluorescence microscopy analysis", "format": "functional, cell-based"}, "Mus musculus [12]": {"tested_on": "Mus musculus", "test": "Antioxidant activity in ICR mouse model of D-galactose-induced aging assessed as increase in superoxide dismutase level in serum at 6 to 30 mg/kg, ig QD measured after 8 weeks", "format": "functional, organism-based"}, "RAW264.7 [13]": {"tested_on": "RAW264.7", "test": "Antiinflammatory activity in mouse RAW264.7 cells assessed as decrease in LPS-induced IL-1beta expression by Western blot analysis", "format": "functional, cell-based"}, "RAW264.7 [14]": {"tested_on": "RAW264.7", "test": "Antiinflammatory activity in mouse RAW264.7 cells assessed as inhibition of LPS-induced nitric oxide production at 10 uM preincubated for 2 hrs followed by LPS stimulation and measured after 24 hrs by Griess assay relative to control", "format": "functional"}, "SH-SY5Y [15]": {"tested_on": "SH-SY5Y", "test": "Neuroprotective activity against H2O2-induced cytotoxicity in human SH-SY5Y cells assessed as cell viability at 1 mM pretreated for 2 hrs followed by H2O2 challenge and measured after MTT assay relative to control", "format": "functional", "details": "read-out: Activity"}}, "note": "Activity calls are given as the source filed them. The calls are words filed in the database; no cut-off is given here."}
{"molecule": "C[C@@H]1CC[C@@]2(OC1)O[C@H]1C[C@H]3[C@@H]4CC=C5C[C@@H](OC(=O)NCc6ccccc6)CC[C@]5(C)[C@H]4CC[C@]3(C)[C@H]1[C@@H]2C", "values": [{"measurement": "Activity", "setting": "SH-SY5Y [1]", "value": "Active"}, {"measurement": "Activity", "setting": "RAW264.7 [2]", "value": "Dose-dependent effect"}, {"measurement": "Activity", "setting": "SH-SY5Y [3]", "value": "Active"}, {"measurement": "Activity", "setting": "Mus musculus [4]", "value": "Active"}, {"measurement": "Activity", "setting": "SH-SY5Y [5]", "value": "Active"}, {"measurement": "Activity", "setting": "Mus musculus [6]", "value": "Active"}, {"measurement": "Activity", "setting": "SH-SY5Y [7]", "value": "Active"}, {"measurement": "Activity", "setting": "RAW264.7 [8]", "value": "Dose-dependent effect"}, {"measurement": "Activity", "setting": "Mus musculus [9]", "value": "Active"}, {"measurement": "viability at 10 µM", "setting": "SH-SY5Y [10]", "value": 75.3, "unit": "%"}, {"measurement": "Activity", "setting": "Astrocyte", "value": "Active"}, {"measurement": "Activity", "setting": "SH-SY5Y [11]", "value": "Active"}, {"measurement": "Activity", "setting": "Mus musculus [12]", "value": "Active"}, {"measurement": "Activity", "setting": "RAW264.7 [13]", "value": "Dose-dependent effect"}, {"measurement": "inhibition at 10 µM", "setting": "RAW264.7 [14]", "value": 22.7, "unit": "%"}]}
{"molecule": "CC(=O)N[C@@H](CS)C(=O)O", "note": "[ACETYLCYSTEINE]", "values": [{"measurement": "viability at 1000 µM", "setting": "SH-SY5Y [15]", "value": 37.1, "unit": "%"}]}
